# Where “and” joins values, the source holds several entries; their conditions need not be identical. Equal entries are not always repeated. ± gives the expanded uncertainty stated by the source.
# Details: Liquid; for speed of sound: Frequency=3 MHz, Single path-length method; for mass density: Vibrating tube method
compound,measurement,setting,value
COC(F)(C(F)(F)C(F)(F)F)C(F)(C(F)(F)F)C(F)(F)F (stereo not drawn),speed of sound,"293.15 K, 100 kPa",644.5 ± 1.1 m/s
same,mass density,"293.15 K, 100 kPa",1668.2 ± 0.8 kg/m3 and 1668.43 ± 0.98 kg/m3
same,mass density,"293.15 K, 1000 kPa",1670.8 ± 0.8 kg/m3
same,mass density,"293.15 K, 5000 kPa",1681.9 ± 0.9 kg/m3
same,mass density,"293.15 K, 10000 kPa",1694.8 ± 1 kg/m3
same,mass density,"293.15 K, 15000 kPa",1706.6 ± 1.1 kg/m3
same,mass density,"293.15 K, 20000 kPa",1717.6 ± 1.2 kg/m3
same,mass density,"293.15 K, 25000 kPa",1727.9 ± 1.3 kg/m3
same,mass density,"293.15 K, 30000 kPa",1737.7 ± 1.4 kg/m3
same,mass density,"293.15 K, 35000 kPa",1746.9 ± 1.5 kg/m3
same,mass density,"293.15 K, 40000 kPa",1755.6 ± 1.7 kg/m3
same,mass density,"293.15 K, 45000 kPa",1764 ± 1.8 kg/m3
same,mass density,"293.15 K, 50000 kPa",1772 ± 2 kg/m3
same,mass density,"293.15 K, 55000 kPa",1779.7 ± 2.2 kg/m3
same,mass density,"293.15 K, 60000 kPa",1787 ± 2.3 kg/m3
same,mass density,"293.15 K, 65000 kPa",1794.1 ± 2.5 kg/m3
same,mass density,"293.15 K, 70000 kPa",1800.9 ± 2.7 kg/m3
same,mass density,"293.15 K, 80000 kPa",1814 ± 3 kg/m3
same,mass density,"293.15 K, 90000 kPa",1826.3 ± 3.4 kg/m3
same,mass density,"293.15 K, 100000 kPa",1837.8 ± 3.8 kg/m3
same,mass density,"293.15 K, 110000 kPa",1848.8 ± 4.1 kg/m3
same,mass density,"293.15 K, 120000 kPa",1859.3 ± 4.5 kg/m3
same,mass density,"293.15 K, 130000 kPa",1869.3 ± 4.9 kg/m3
same,mass density,"293.15 K, 140000 kPa",1878.8 ± 5.3 kg/m3
same,speed of sound,"298.15 K, 100 kPa",629.44 ± 1.1 m/s
same,mass density,"298.15 K, 100 kPa",1656.7 ± 0.8 kg/m3 and 1656.79 ± 0.98 kg/m3
same,mass density,"298.15 K, 1000 kPa",1659.4 ± 0.8 kg/m3
same,mass density,"298.15 K, 5000 kPa",1671 ± 0.9 kg/m3
same,mass density,"298.15 K, 10000 kPa",1684.4 ± 1 kg/m3
same,mass density,"298.15 K, 15000 kPa",1696.6 ± 1 kg/m3
same,mass density,"298.15 K, 20000 kPa",1708 ± 1.2 kg/m3
same,mass density,"298.15 K, 25000 kPa",1718.6 ± 1.3 kg/m3
same,mass density,"298.15 K, 30000 kPa",1728.6 ± 1.4 kg/m3
same,mass density,"298.15 K, 35000 kPa",1738.1 ± 1.5 kg/m3
same,mass density,"298.15 K, 40000 kPa",1747.1 ± 1.6 kg/m3
same,mass density,"298.15 K, 45000 kPa",1755.6 ± 1.8 kg/m3
same,mass density,"298.15 K, 50000 kPa",1763.8 ± 2 kg/m3
same,mass density,"298.15 K, 55000 kPa",1771.7 ± 2.1 kg/m3
same,mass density,"298.15 K, 60000 kPa",1779.3 ± 2.3 kg/m3
same,mass density,"298.15 K, 65000 kPa",1786.5 ± 2.5 kg/m3
same,mass density,"298.15 K, 70000 kPa",1793.4 ± 2.6 kg/m3
same,mass density,"298.15 K, 80000 kPa",1806.7 ± 3 kg/m3
same,mass density,"298.15 K, 90000 kPa",1819.1 ± 3.4 kg/m3
same,mass density,"298.15 K, 100000 kPa",1831 ± 3.7 kg/m3
same,mass density,"298.15 K, 110000 kPa",1842 ± 4.1 kg/m3
same,mass density,"298.15 K, 120000 kPa",1852.7 ± 4.5 kg/m3
same,mass density,"298.15 K, 130000 kPa",1862.8 ± 4.9 kg/m3
same,mass density,"298.15 K, 140000 kPa",1872.5 ± 5.3 kg/m3
same,speed of sound,"303.15 K, 100 kPa",614.76 ± 1.1 m/s
same,mass density,"303.15 K, 100 kPa",1645.11 ± 0.98 kg/m3
same,speed of sound,"313.15 K, 100 kPa",585.65 ± 1.1 m/s
same,mass density,"313.15 K, 100 kPa",1621.3 ± 0.8 kg/m3 and 1621.41 ± 0.97 kg/m3
same,mass density,"313.15 K, 1000 kPa",1624.5 ± 0.8 kg/m3
same,mass density,"313.15 K, 5000 kPa",1637.7 ± 0.9 kg/m3
same,mass density,"313.15 K, 10000 kPa",1652.7 ± 0.9 kg/m3
same,mass density,"313.15 K, 15000 kPa",1666.3 ± 1 kg/m3
same,mass density,"313.15 K, 20000 kPa",1678.8 ± 1.1 kg/m3
same,mass density,"313.15 K, 25000 kPa",1690.4 ± 1.2 kg/m3
same,mass density,"313.15 K, 30000 kPa",1701.4 ± 1.4 kg/m3
same,mass density,"313.15 K, 35000 kPa",1711.6 ± 1.5 kg/m3
same,mass density,"313.15 K, 40000 kPa",1721.2 ± 1.6 kg/m3
same,mass density,"313.15 K, 45000 kPa",1730.5 ± 1.7 kg/m3
same,mass density,"313.15 K, 50000 kPa",1739.2 ± 1.9 kg/m3
same,mass density,"313.15 K, 55000 kPa",1747.6 ± 2.1 kg/m3
same,mass density,"313.15 K, 60000 kPa",1755.5 ± 2.2 kg/m3
same,mass density,"313.15 K, 65000 kPa",1763.3 ± 2.4 kg/m3
same,mass density,"313.15 K, 70000 kPa",1770.7 ± 2.6 kg/m3
same,mass density,"313.15 K, 80000 kPa",1784.8 ± 2.9 kg/m3
same,mass density,"313.15 K, 90000 kPa",1797.9 ± 3.3 kg/m3
same,mass density,"313.15 K, 100000 kPa",1810.2 ± 3.6 kg/m3
same,mass density,"313.15 K, 110000 kPa",1822 ± 4 kg/m3
same,mass density,"313.15 K, 120000 kPa",1832.9 ± 4.4 kg/m3
same,mass density,"313.15 K, 130000 kPa",1843.5 ± 4.8 kg/m3
same,mass density,"313.15 K, 140000 kPa",1853.5 ± 5.2 kg/m3
same,speed of sound,"323.15 K, 100 kPa",557.04 ± 1.1 m/s
same,mass density,"323.15 K, 100 kPa",1597.04 ± 0.97 kg/m3
same,speed of sound,"333.15 K, 100 kPa",529.01 ± 1.1 m/s
same,mass density,"333.15 K, 100 kPa",1572.7 ± 0.8 kg/m3 and 1572.8 ± 0.96 kg/m3
same,mass density,"333.15 K, 1000 kPa",1576.5 ± 0.8 kg/m3
same,mass density,"333.15 K, 5000 kPa",1592.3 ± 0.9 kg/m3
same,mass density,"333.15 K, 10000 kPa",1609.9 ± 0.9 kg/m3
same,mass density,"333.15 K, 15000 kPa",1625.7 ± 1 kg/m3
same,mass density,"333.15 K, 20000 kPa",1639.8 ± 1.1 kg/m3

# Source: the NIST ThermoML archive (doi:10.1016/j.jct.2018.02.003)
